The results in this text go back to patent publication US20160083357A1, “NOVEL TETRAZOLONE DERIVATIVES” (Hoffmann-La Roche Inc., priority 2013, published 2016).

Read-outs that look alike come from different tables or passages of the source. Bounds are passed on as bounds.

Assay [1] deals with T1, human CB1 receptors (Homo sapiens, UniProt P21554).
T1 construct: expressed in transfected cells; host or cells: CHO cells
The experiment in a line: cAMP assay, human CB1. Type of assay: cell-based. The procedure, abridged: (§1)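 CHO cells expressing human CB1 or CB2, preincubated in Krebs Ringer bicarbonate with 1 mM IBMX, then compound for 30 min at 30° C. cAMP quantified by time-resolved FRET (cAMP-Nano-TRF) against a cAMP standard curve; EC50 values derived.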
(cAMP levels reflect the balance of adenylyl cyclase and phosphodiesterase activity.)

Assay [2] addresses T2, human CB2 receptors (Homo sapiens, UniProt P34972).
T2 construct: expressed in transfected cells; host or cells: CHO cells
The experiment in a line: cAMP assay, human CB2. Type of assay: cell-based. The essentials: as §1

Setting [3] is: functional cAMP assay, CHO cells expressing human CB1, read-out: Ec50: CB1 - hu cAMP.
Where [4] appears, read: functional cAMP assay, CHO cells expressing human CB2, read-out: Ec50: CB2 - hu cAMP.

T2 sequence (P34972 whole entry): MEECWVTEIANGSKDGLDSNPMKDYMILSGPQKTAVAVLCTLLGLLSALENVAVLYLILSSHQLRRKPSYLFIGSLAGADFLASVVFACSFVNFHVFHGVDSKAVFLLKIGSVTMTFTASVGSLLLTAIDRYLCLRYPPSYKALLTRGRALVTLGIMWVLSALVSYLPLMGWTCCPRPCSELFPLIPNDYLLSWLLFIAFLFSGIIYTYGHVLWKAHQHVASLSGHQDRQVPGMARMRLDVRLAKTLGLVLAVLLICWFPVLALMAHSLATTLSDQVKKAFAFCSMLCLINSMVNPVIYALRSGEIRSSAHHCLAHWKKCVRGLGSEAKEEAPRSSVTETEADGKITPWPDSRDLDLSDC
T1 sequence (P21554 whole entry): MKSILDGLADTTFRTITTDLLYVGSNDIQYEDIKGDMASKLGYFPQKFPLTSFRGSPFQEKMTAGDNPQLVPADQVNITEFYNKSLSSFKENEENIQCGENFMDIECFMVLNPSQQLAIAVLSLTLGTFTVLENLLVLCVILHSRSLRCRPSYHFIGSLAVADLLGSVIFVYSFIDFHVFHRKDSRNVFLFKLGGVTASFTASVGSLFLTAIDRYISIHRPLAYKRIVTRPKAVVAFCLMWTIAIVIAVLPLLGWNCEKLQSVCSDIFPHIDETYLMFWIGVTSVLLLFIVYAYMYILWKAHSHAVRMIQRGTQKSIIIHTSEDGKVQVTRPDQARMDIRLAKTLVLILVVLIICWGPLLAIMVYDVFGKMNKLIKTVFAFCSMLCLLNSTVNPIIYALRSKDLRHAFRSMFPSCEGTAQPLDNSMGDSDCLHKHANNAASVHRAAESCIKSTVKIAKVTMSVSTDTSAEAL

On to `CCN(CCOC)C(=O)n1nnn(-c2cccc(Cl)c2)c1=O` [Example 80, 4-(3-Chloro-phenyl)-5-oxo-4,5-dihydro-tetrazole-1-carboxylic acid ethyl-(2-methoxy-ethyl)-amide], for which the figures for the EC50 in assay [1] and in assay [2] were > 10000 nM and 2.4 nM, respectively.

Turning to `CCN(CCOC)C(=O)n1nnn(-c2cccc(OC(F)(F)F)c2)c1=O` [Example 81, 5-Oxo-4-(3-trifluoromethoxy-phenyl)-4,5-dihydro-tetrazole-1-carboxylic acid ethyl-(2-methoxy-ethyl)-amide], the figures for the EC50 in assay [1] (setting [3]) and in assay [2] (setting [4]) were > 10000 nM and 4 nM, respectively.

As to `CCN(CCOC)C(=O)n1nnn(-c2ccc(Cl)cc2)c1=O` [Example 82, 4-(4-Chloro-phenyl)-5-oxo-4,5-dihydro-tetrazole-1-carboxylic acid ethyl-(2-methoxy-ethyl)-amide], the EC50 (usually the concentration needed to bring the measured effect to its halfway point) in assay [1] was > 10000 nM; in assay [2], 3.3 nM.

For the compound `COCCN(C(=O)n1nnn(-c2cccc(Cl)c2)c1=O)C(C)C` [Example 83, 4-(3-Chloro-phenyl)-5-oxo-4,5-dihydro-tetrazole-1-carboxylic acid isopropyl-(2-methoxy-ethyl)-amide], the EC50 was > 10000 nM in assay [1] and 5.3 nM in assay [2].

For the compound `COCCN(C(=O)n1nnn(-c2cccc(OC(F)(F)F)c2)c1=O)C(C)C` [Example 84, 5-Oxo-4-(3-trifluoromethoxy-phenyl)-4,5-dihydro-tetrazole-1-carboxylic acid isopropyl-(2-methoxy-ethyl)-amide], the figures for the EC50 in assay [1] (setting [3]) and in assay [2] (setting [4]) were > 10000 nM and 9.5 nM, respectively.

`COCCN(C(=O)n1nnn(-c2ccc(Cl)cc2)c1=O)C(C)C` [Example 85, 4-(4-Chloro-phenyl)-5-oxo-4,5-dihydro-tetrazole-1-carboxylic acid isopropyl-(2-methoxy-ethyl)-amide]: the EC50 in assay [1] was > 10000 nM; in assay [2] it was 7.9 nM.

Regarding `COCCCN(C)C(=O)n1nnn(-c2cccc(Cl)c2)c1=O` [Example 86, 4-(3-Chloro-phenyl)-5-oxo-4,5-dihydro-tetrazole-1-carboxylic acid (3-methoxy-propyl)-methyl-amide], the EC50 was > 10000 nM in assay [1] (setting [3]) and 1 nM in assay [2] (setting [4]).

Regarding `COCCCN(C)C(=O)n1nnn(-c2cccc(OC(F)(F)F)c2)c1=O` [Example 87, 5-Oxo-4-(3-trifluoromethoxy-phenyl)-4,5-dihydro-tetrazole-1-carboxylic acid (3-methoxy-propyl)-methyl-amide], the results for the EC50 in assay [1] and in assay [2] were > 10000 nM and 3.6 nM, respectively.

With `COCCCN(C)C(=O)n1nnn(-c2ccc(Cl)cc2)c1=O` [Example 88, 4-(4-Chloro-phenyl)-5-oxo-4,5-dihydro-tetrazole-1-carboxylic acid (3-methoxy-propyl)-methyl-amide], the 50% effective concentration (EC50) is > 10000 nM in assay [1] (setting [3]) and 1.9 nM in assay [2] (setting [4]).

For the compound `O=C(CN1CCN(C(=O)n2nnn(-c3cccc(Cl)c3)c2=O)CC1)N1CCOCC1` [Example 89, 1-(3-Chloro-phenyl)-4-[4-(2-morpholin-4-yl-2-oxo-ethyl)-piperazine-1-carbonyl]-1,4-dihydro-tetrazol-5-one], the EC50 in assay [1] (setting [3]) is > 10000 nM; in assay [2] (setting [4]), 16.9 nM.

For `O=C(CN1CCN(C(=O)n2nnn(-c3cccc(OC(F)(F)F)c3)c2=O)CC1)N1CCOCC1` [Example 90, 1-[4-(2-Morpholin-4-yl-2-oxo-ethyl)-piperazine-1-carbonyl]-4-(3-trifluoromethoxy-phenyl)-1,4-dihydro-tetrazol-5-one], the figures for the EC50 in assay [1] (setting [3]) and in assay [2] (setting [4]) were > 10000 nM and 67 nM, respectively.

Consider `O=C(CN1CCN(C(=O)n2nnn(-c3ccc(Cl)cc3)c2=O)CC1)N1CCOCC1` [Example 91, 1-(4-Chloro-phenyl)-4-[4-(2-morpholin-4-yl-2-oxo-ethyl)-piperazine-1-carbonyl]-1,4-dihydro-tetrazol-5-one], for which the figures for the EC50 in assay [1] (setting [3]) and in assay [2] (setting [4]) were > 10000 nM and 42.8 nM, respectively.

Consider `CN(C)C(=O)CN1CCN(C(=O)n2nnn(-c3cccc(Cl)c3)c2=O)CC1` [Example 92, 2-{4-[4-(3-Chloro-phenyl)-5-oxo-4,5-dihydro-tetrazole-1-carbonyl]-piperazin-1-yl}-N,N-dimethyl-acetamide], for which the EC50 in assay [1] (setting [3]) was > 10000 nM; in assay [2] (setting [4]), 16.4 nM.

Turning to `CN(C)C(=O)CN1CCN(C(=O)n2nnn(-c3cccc(OC(F)(F)F)c3)c2=O)CC1` [Example 93, N,N-Dimethyl-2-{4-[5-oxo-4-(3-trifluoromethoxy-phenyl)-4,5-dihydro-tetrazole-1-carbonyl]-piperazin-1-yl}-acetamide], the 50% effective concentration (EC50) was > 10000 nM in assay [1] (setting [3]) and 24.2 nM in assay [2] (setting [4]).

Consider `CN(C)C(=O)CN1CCN(C(=O)n2nnn(-c3ccc(Cl)cc3)c2=O)CC1` [Example 94, 2-{4-[4-(4-Chloro-phenyl)-5-oxo-4,5-dihydro-tetrazole-1-carbonyl]-piperazin-1-yl}-N,N-dimethyl-acetamide], for which the figures for the EC50 in assay [1] (setting [3]) and in assay [2] (setting [4]) were > 10000 nM and 21.1 nM, respectively.

For `O=C(CN1CCN(C(=O)n2nnn(-c3cccc(Cl)c3)c2=O)CC1)N1CCCC1` [Example 95, 1-(3-Chloro-phenyl)-4-[4-(2-oxo-2-pyrrolidin-1-yl-ethyl)-piperazine-1-carbonyl]-1,4-dihydro-tetrazol-5-one], the values for the EC50 in assay [1] (setting [3]) and in assay [2] (setting [4]) were > 10000 nM and 4.7 nM, respectively.

On to `O=C(CN1CCN(C(=O)n2nnn(-c3cccc(OC(F)(F)F)c3)c2=O)CC1)N1CCCC1` [Example 96, 1-[4-(2-Oxo-2-pyrrolidin-1-yl-ethyl)-piperazine-1-carbonyl]-4-(3-trifluoromethoxy-phenyl)-1,4-dihydro-tetrazol-5-one], for which the EC50 in assay [1] (setting [3]) was > 10000 nM; in assay [2] (setting [4]) it was 18.2 nM.

`O=C(CN1CCN(C(=O)n2nnn(-c3ccc(Cl)cc3)c2=O)CC1)N1CCCC1` [Example 97, 1-(4-Chloro-phenyl)-4-[4-(2-oxo-2-pyrrolidin-1-yl-ethyl)-piperazine-1-carbonyl]-1,4-dihydro-tetrazol-5-one]: the EC50 was > 10000 nM in assay [1] (setting [3]) and 12.9 nM in assay [2] (setting [4]).

As for `CCOCCN(CC)C(=O)n1nnn(-c2cccc(Cl)c2)c1=O` [Example 98, 4-(3-Chloro-phenyl)-5-oxo-4,5-dihydro-tetrazole-1-carboxylic acid (2-ethoxy-ethyl)-ethyl-amide], the EC50 is > 10000 nM in assay [1] and 1.8 nM in assay [2].

Take `CCOCCN(CC)C(=O)n1nnn(-c2cccc(OC(F)(F)F)c2)c1=O` [Example 99, 5-Oxo-4-(3-trifluoromethoxy-phenyl)-4,5-dihydro-tetrazole-1-carboxylic acid (2-ethoxy-ethyl)-ethyl-amide]: the EC50 in assay [1] (setting [3]) is > 10000 nM; in assay [2] (setting [4]), 12.5 nM.

`CCOCCN(CC)C(=O)n1nnn(-c2ccc(Cl)cc2)c1=O` [Example 100, 4-(4-Chloro-phenyl)-5-oxo-4,5-dihydro-tetrazole-1-carboxylic acid (2-ethoxy-ethyl)-ethyl-amide]: the EC50 in assay [1] is > 10000 nM; in assay [2], 1.7 nM.

Take `O=C(N1CCOCC1)n1nnn(-c2cccc(Cl)c2)c1=O` [Example 101, 1-(3-Chloro-phenyl)-4-(morpholine-4-carbonyl)-1,4-dihydro-tetrazol-5-one]: the EC50 in assay [1] (setting [3]) was > 10000 nM; in assay [2] (setting [4]), 3.2 nM.

Turning to `O=C(N1CCOCC1)n1nnn(-c2cccc(OC(F)(F)F)c2)c1=O` [Example 102, 1-(Morpholine-4-carbonyl)-4-(3-trifluoromethoxy-phenyl)-1,4-dihydro-tetrazol-5-one], the values for the EC50 in assay [1] (setting [3]) and in assay [2] (setting [4]) were > 10000 nM and 4.4 nM, respectively.

Turning to `O=C(N1CCOCC1)n1nnn(-c2ccc(Cl)cc2)c1=O` [Example 103, 1-(4-Chloro-phenyl)-4-(morpholine-4-carbonyl)-1,4-dihydro-tetrazol-5-one], the results for the EC50 in assay [1] (setting [3]) and in assay [2] (setting [4]) were > 10000 nM and 4.5 nM, respectively.

`CCNC(=O)CN1CCN(C(=O)n2nnn(-c3cccc(Cl)c3)c2=O)CC1` [Example 104, 2-{4-[4-(3-Chloro-phenyl)-5-oxo-4,5-dihydro-tetrazole-1-carbonyl]-piperazin-1-yl}-N-ethyl-acetamide]: the EC50 in assay [1] (setting [3]) is > 10000 nM; in assay [2] (setting [4]), 12.7 nM.

As to `CCNC(=O)CN1CCN(C(=O)n2nnn(-c3cccc(OC(F)(F)F)c3)c2=O)CC1` [Example 105, N-Ethyl-2-{4-[5-oxo-4-(3-trifluoromethoxy-phenyl)-4,5-dihydro-tetrazole-1-carbonyl]-piperazin-1-yl}-acetamide], the EC50 in assay [1] (setting [3]) was > 10000 nM; in assay [2] (setting [4]), 20.1 nM.

As to `CCNC(=O)CN1CCN(C(=O)n2nnn(-c3ccc(Cl)cc3)c2=O)CC1` [Example 106, 2-{4-[4-(4-Chloro-phenyl)-5-oxo-4,5-dihydro-tetrazole-1-carbonyl]-piperazin-1-yl}-N-ethyl-acetamide], the EC50 in assay [1] (setting [3]) is > 10000 nM; in assay [2] (setting [4]), 10.6 nM.

`CCCCNC(=O)CN1CCN(C(=O)n2nnn(-c3cccc(Cl)c3)c2=O)CC1` [Example 107, N-Butyl-2-{4-[4-(3-chloro-phenyl)-5-oxo-4,5-dihydro-tetrazole-1-carbonyl]-piperazin-1-yl}-acetamide]: the results for the EC50 in assay [1] (setting [3]) and in assay [2] (setting [4]) were > 10000 nM and 2.9 nM, respectively.

In the case of `CCCCNC(=O)CN1CCN(C(=O)n2nnn(-c3cccc(OC(F)(F)F)c3)c2=O)CC1` [Example 108, N-Butyl-2-{4-[5-oxo-4-(3-trifluoromethoxy-phenyl)-4,5-dihydro-tetrazole-1-carbonyl]-piperazin-1-yl}-acetamide], the EC50 was > 10000 nM in assay [1] (setting [3]) and 13.9 nM in assay [2] (setting [4]).

For the compound `CCCCNC(=O)CN1CCN(C(=O)n2nnn(-c3ccc(Cl)cc3)c2=O)CC1` [Example 109, N-Butyl-2-{4-[4-(4-chloro-phenyl)-5-oxo-4,5-dihydro-tetrazole-1-carbonyl]-piperazin-1-yl}-acetamide], the EC50 in assay [1] (setting [3]) is > 10000 nM; in assay [2] (setting [4]), 4.2 nM.
